# Values quoted from earlier work in patent US20210137911A1, “NOVEL CHRONOTHERAPY BASED ON CIRCADIAN RHYTHMS” (THE TRUSTEES OF THE UNIVERSITY OF PENNSYLVANIA, priority 2014, published 2021).
# Residues, ends and D or L forms follow the SMILES beside them.
# Conditions: half-life of therapeutic compound as listed in Table 1; cited from earlier work
row,Structure (SMILES),½ Life
1,CCCCC(C)(O)C/C=C/[C@H]1[C@H](O)CC(=O)[C@@H]1CCCCCCC(=O)OC (mixture of isomers) [Misoprostol],0.33 h

# Same assay, conditions: half-life of top selling therapeutic compounds (Table 1); cited from earlier work
row,Structure (SMILES),½ Life
1,C[C@]12CC[C@H](O)CC1=CC[C@@H]1[C@@H]2CC[C@]2(C)C(c3cccnc3)=CC[C@@H]12 [Abiraterone],5 h
2,C[C@H]1O[C@H](O[C@H]2[C@H](O)[C@@H](O)[C@@H](O[C@H]3[C@H](O)[C@@H](O)C(O)O[C@@H]3CO)O[C@@H]2CO)[C@H](O)[C@@H](O)[C@@H]1N[C@H]1C=C(CO)[C@@H](O)[C@H](O)[C@H]1O (some centres unmarked) [Acarbose],2 h
3,CCCC(=O)Nc1ccc(OCC(O)CNC(C)C)c(C(C)=O)c1 (centres unmarked) [Acebutolol],3 h
4,CC(=O)c1ccc2c(c1)N(CCCN(C)C)c1ccccc1S2 [Acepromazine],3 h
5,CC(=O)Nc1ccc(O)cc1 [Acetaminophen],1 h
6,CC(=O)Nc1nnc(S(N)(=O)=O)s1 [Acetazolamide],3 h
7,CC(=O)c1ccc(S(=O)(=O)NC(=O)NC2CCCCC2)cc1 [Acetohexamide],1.3 h
8,CC(=O)N[C@@H](CS)C(=O)O [Acetylcysteine],5.6 h
9,O=C(O[C@H]1C[N+]2(CCCOc3ccccc3)CCC1CC2)C(O)(c1cccs1)c1cccs1 [Aclidinium],2.4 h
10,COc1ccc2cccc(CCNC(C)=O)c2c1 [Agomelatine],2 h
11,Oc1ncnc2[nH]ncc12 [Allopurinol],1 h
12,CN(C)CCc1c[nH]c2ccc(CS(=O)(=O)N3CCCC3)cc12 [Almotriptan],3 h
13,C=CCc1ccccc1OCC(O)CNC(C)C (centres unmarked) [Alprenolol],2 h
14,NCCCNCCSP(=O)(O)O [Amifostine],0.133 h
15,NCCCCCC(=O)O [Aminocaproic Acid],2 h
16,NCC(=O)CCC(=O)O [Aminolevulinic acid],0.7 h
17,CC(C)c1ccc2oc3nc(N)c(C(=O)O)cc3c(=O)c2c1 [Amlexanox],3.5 h
18,Nc1cc(-c2ccncc2)c[nH]c1=O [Amrinone],5 h
19,O=C1CN2Cc3c(ccc(Cl)c3Cl)N=C2N1 [Anagrelide],0.5 h
20,CN1CCc2cccc3c2[C@H]1Cc1ccc(O)c(O)c1-3 [Apomorphine],0.66 h
21,COC(=O)[C@H](Cc1ccccc1)NC(=O)[C@@H](N)CC(=O)O [Aspartame] (H-Asp-Phe-OMe),4.3 h
22,CNCC[C@@H](Oc1ccccc1C)c1ccccc1 [Atomoxetine],5 h

row,Structure (SMILES),½ Life
1,COc1ccc(CC2c3cc(OC)c(OC)cc3CC[N+]2(C)CCC(=O)OCCCCCOC(=O)CC[N+]2(C)CCc3cc(OC)c(OC)cc3C2Cc2ccc(OC)c(OC)c2)cc1OC (centres unmarked) [Atracurium],0.33 h
2,COc1ccc(CN=c2[nH]c(N3CCC[C@H]3CO)ncc2C(=O)NCc2ncccn2)cc1Cl [Avanafil],5.36 h
3,CNC(=O)c1ccccc1Sc1ccc2c(/C=C/c3ccccn3)n[nH]c2c1 [Axitinib],2.5 h
4,NCC(CC(=O)O)c1ccc(Cl)cc1 (centres unmarked) [Baclofen],2.5 h
5,CCCCNc1ccc(C(=O)OCCOCCOCCOCCOCCOCCOCCOCCOCCOC)cc1 [Benzonatate],3 h
6,CCN(CC)C(=O)C1CN2CCc3cc(OC)c(OC)cc3C2CC1OC(C)=O (centres unmarked) [Benzquinamide],1 h
7,CNCCc1ccccn1 [Betahistine],3 h
8,C[C@H]1C[C@H]2[C@@H]3CCC4=CC(=O)C=C[C@]4(C)[C@@]3(F)[C@@H](O)C[C@]2(C)[C@@]1(O)C(=O)CO [Betamethasone],5.6 h
9,"CC(C)(Oc1ccc(CCNC(=O)c2ccc(Cl)cc2)cc1)C(=O)O [Bezafibrate, reference compound]",1 h
10,CCNC(=O)CCC/C=C\C[C@@H]1[C@@H](/C=C/[C@@H](O)CCc2ccccc2)[C@H](O)C[C@@H]1O [Bimatoprost],0.75 h
11,Nc1nc(N/N=C/C2CCCCC2)nc2c1ncn2[C@@H]1O[C@H](CO)[C@@H](O)[C@H]1O [Binodenoson],0.166 h
12,COc1ccccc1Oc1c(NS(=O)(=O)c2ccc(C(C)(C)C)cc2)nc(-c2ncccn2)nc1OCCO [Bosentan],5 h
13,Brc1c(NC2=NCCN2)ccc2nccnc12 [Brimonidine],2 h
14,CC(C)C[C@H]1C(=O)N2CCC[C@H]2[C@]2(O)O[C@](NC(=O)[C@@H]3C=C4c5cccc6[nH]c(Br)c(c56)C[C@H]4N(C)C3)(C(C)C)C(=O)N12 [Bromocriptine],2 h
15,CCCC1O[C@@H]2C[C@H]3[C@@H]4CCC5=CC(=O)C=C[C@]5(C)[C@H]4[C@@H](O)C[C@]3(C)[C@]2(C(=O)CO)O1 (some centres unmarked) [Budesonide],2 h
16,CCCCNc1cc(C(=O)O)cc(S(N)(=O)=O)c1Oc1ccccc1 [Bumetanide],1 h
17,CCCCN1CCCCC1C(=O)Nc1c(C)cccc1C (centres unmarked) [Bupivacaine],2.7 h
18,Cc1ccc(Cl)c(OCC(O)CNC(C)(C)C)c1 (centres unmarked) [Bupranolol],2 h
19,CO[C@H]1C(=O)[C@]2(C)[C@@H](OC)C[C@H]3OC[C@@]3(OC(C)=O)[C@H]2[C@H](OC(=O)c2ccccc2)[C@]2(O)C[C@H](OC(=O)[C@H](O)[C@@H](NC(=O)OC(C)(C)C)c3ccccc3)C(C)=C1C2(C)C [Cabazitaxel],4 h
20,C=C1/C(=C\C=C2/CCC[C@]3(C)[C@@H]([C@H](C)CCCC(C)(C)O)CC[C@@H]23)C[C@@H](O)C[C@@H]1O [Calcitriol],5 h
21,CCCCCOC(=O)Nc1nc(=O)n([C@@H]2O[C@H](C)[C@@H](O)[C@H]2O)cc1F [Capecitabine],0.75 h
22,C[C@@](Cc1ccc(O)c(O)c1)(NN)C(=O)O [Carbidopa],1 h

row,Structure (SMILES),½ Life
1,"COCc1c(C(C)C)nc(C(C)C)c(/C=C/[C@@H](O)C[C@@H](O)CC(=O)O)c1-c1ccc(F)cc1 [Cerivastatin, reference compound]",2 h
2,CC1OC2(CS1)CN1CCC2CC1 (centres unmarked) [Cevimeline],5 h
3,Cc1cc(C2CCCCC2)n(O)c(=O)c1 [Ciclopirox],1.7 h
4,CCOc1cc(N)c([N+](=O)[O-])cc1C(=O)NC1CCN(CC2CC=CCC2)CC1 (centres unmarked) [Cinitapride],3 h
5,COc1ccc(C[C@@H]2c3cc(OC)c(OC)cc3CC[N@+]2(C)CCC(=O)OCCCCCOC(=O)CC[N@@+]2(C)CCc3cc(OC)c(OC)cc3[C@H]2Cc2ccc(OC)c(OC)c2)cc1OC [Cisatracurium Besylate],0.366 h
6,Nc1nc(Cl)nc2c1ncn2[C@H]1C[C@H](O)[C@@H](CO)O1 [Cladribine],5.4 h
7,Nc1nc(Cl)nc2c1ncn2[C@@H]1O[C@H](CO)[C@@H](O)[C@@H]1F [Clofarabine],5.2 h
8,O=C(O)C1N=C(c2ccccc2)c2cc(Cl)ccc2NC1=O (centres unmarked) [Clorazepate],2 h
9,CCc1cc2c(s1)N(C)C(=O)CN=C2c1ccccc1Cl [Clotiazepam],4 h
10,Clc1ccccc1C(c1ccccc1)(c1ccccc1)n1ccnc1 [Clotrimazole],2 h
11,COC(=O)[C@H]1[C@@H](OC(=O)c2ccccc2)C[C@@H]2CC[C@H]1N2C [Cocaine],1 h
12,COc1cc2c(c(OC)c1OC)-c1ccc(OC)c(=O)cc1[C@@H](NC(C)=O)CC2 [Colchicine],1 h
13,CN(CC(=O)O)C(=N)N [Creatine],3 h
14,CN(C)/N=N/c1[nH]cnc1C(N)=O [Dacarbazine],5 h
15,O=C1CN(/N=C/c2ccc(-c3ccc([N+](=O)[O-])cc3)o2)C(O)=N1 [Dantrolene],4 h
16,CN(C)[C@@H](CCOc1cccc2ccccc12)c1ccccc1 [Dapoxetine],1 h
17,Cc1nc(Nc2ncc(C(=O)Nc3c(C)cccc3Cl)s2)cc(N2CCN(CCO)CC2)n1 [Dasatinib],3 h
18,Nc1ncn([C@H]2C[C@H](O)[C@@H](CO)O2)c(=O)n1 [Decitabine],0.51 h
19,Cc1cccc([C@H](C)c2cnc[nH]2)c1C [Dexmedetomidine],2 h
20,C[C@@H](CN1CC(=O)NC(=O)C1)N1CC(=O)NC(=O)C1 [Dexrazoxane],2.5 h
21,COc1ccc2c(c1)[C@]13CCCC[C@@H]1[C@H](C2)N(C)CC3 [Dextromethorphan],3 h

# Same assay, conditions: in vivo; cited from earlier work
row,Structure (SMILES),½ Life
1,N[C@@H]1C[C@H]1c1ccccc1 (racemic) [Tranylcypromine],1.5 h
2,CN(C)Cc1nnc2n1-c1ccc(Cl)cc1C(c1ccccc1)=NC2 [Adinazolam],3 h
3,CC(C)C(=O)O[C@@H](OC(=O)NC[C@H](CC(=O)O)c1ccc(Cl)cc1)C(C)C [Arbaclofen Placarbil],0.1 h
4,Oc1ccc(CCCCNC[C@H](O)c2ccc(O)c(O)c2)cc1 [Arbutamine],0.133 h
5,C[C@H]1C[C@H]2[C@@H]3CCC4=CC(=O)C=C[C@]4(C)[C@@]3(Cl)[C@@H](O)C[C@]2(C)[C@@]1(O)C(=O)CO [Beclomethasone],2.8 h
6,Cn1c(=O)c2c(ncn2C)n(C)c1=O [Caffeine],3 h
7,O=NN(CCCl)C(=O)NCCCl [Carmustine],0.25 h
8,COc1ccc2c3c1O[C@H]1[C@@H](O)C=C[C@H]4[C@@H](C2)N(C)CC[C@@]341 [Codeine],3 h
9,Nc1ccn([C@@H]2O[C@H](CO)[C@@H](O)[C@@H]2O)c(=O)n1 [Cytarabine],0.166 h
10,Nc1ccncc1 [Dalfampridine],3.5 h
11,NC(=O)CC[C@@H]1NC(=O)[C@H](Cc2ccccc2)NC(=O)[C@H](Cc2ccc(O)cc2)NC(=O)CCSSC[C@@H](C(=O)N2CCC[C@H]2C(=O)N[C@H](CCCN=C(N)N)C(=O)NCC(N)=O)NC(=O)[C@H](CC(N)=O)NC1=O [Desmopressin],1 h
12,COC(=O)[C@H](c1ccccc1)[C@H]1CCCCN1 [Dexmethylphenidate],2 h
13,C[C@@]12CCCCC[C@@H](Cc3ccc(O)cc31)[C@@H]2N [Dezocine],2.2 h

# Same assay, conditions: see Table 1; cited from earlier work
row,Structure (SMILES),half-life
1,"COCc1c(C(C)C)nc(C(C)C)c(/C=C/[C@@H](O)C[C@@H](O)CC(=O)O)c1-c1ccc(F)cc1 [Cerivastatin, reference compound]",less than three
